Source: patent US6358885B1, “Substituted phenylheterocyclic herbicides” (Mississippi State University, priority 1992, dated 2002)

Assays:
[1] = test system: wheat; assay: Test C preemergence/postemergence greenhouse plant response rating 0 to 100; assay type: in vivo, Triticum aestivum; conditions: POSTEMERGENCE; for Plant response rating, Wheat: 0 to 100 scale
Procedure, shortened: (§1)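 Compounds in non-phytotoxic solvent applied preemergence to sandy loam one day after planting, postemergence at the 1–4 leaf stage, or to ~2.5 cm floodwater over silt loam.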

[2] = test system: sorghum; assay: Test B preemergence/postemergence greenhouse plant response rating 0 to 10; assay type: in vivo, Sorghum bicolor; conditions: 0 to 10 scale
Procedure, shortened: (§2)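 Postemergence treatment of plants two to eighteen cm tall ran alongside preemergence treatment of planted seed, each using compound in a non-phytotoxic solvent.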

[3] = test system: wheat; assay: as above; assay type: in vivo, Triticum aestivum; conditions: 0 to 10 scale
Procedure, shortened: as §2

[4] = test system: barnyardgrass; assay: Test C flood test plant response rating 0 to 100; assay type: in vivo, Echinochloa crus-galli; conditions: for Plant response rating (0 to 100), Barnyardgrass: under POSTEMERGENCE head (flood test species); for Plant response rating, Barnyardgrass: flood test species listed under POSTEMERGENCE, 0 to 100 scale
Procedure, shortened: as §1

[5] = test system: bedstraw; assay: Test B preemergence/postemergence greenhouse plant response rating 0 to 10; assay type: in vivo, Galium aparine; conditions: 0 to 10 scale
Procedure, shortened: as §2

[6] = test system: barley; assay: as above; assay type: in vivo, Hordeum vulgare; conditions: 0 to 10 scale
Procedure, shortened: as §2

[7] = test system: ryegrass; assay: Test C preemergence/postemergence greenhouse plant response rating 0 to 100; assay type: in vivo, Lolium multiflorum; conditions: POSTEMERGENCE
Procedure, shortened: as §1

[8] = test system: wild oat; assay: Test B preemergence/postemergence greenhouse plant response rating 0 to 10; assay type: in vivo, Avena fatua; conditions: 0 to 10 scale
Procedure, shortened: as §2

[9] = test system: rape; assay: Test C preemergence/postemergence greenhouse plant response rating 0 to 100; assay type: in vivo, Brassica napus; conditions: POSTEMERGENCE; for Plant response rating, Rape: 0 to 100 scale
Procedure, shortened: as §1

[10] = test system: wild buckwheat; assay: as above; assay type: in vivo, Polygonum convolvulus; conditions: POSTEMERGENCE; for Plant response rating, Wild buckwheat: 0 to 100 scale
Procedure, shortened: as §1

[11] = test system: sugar beet; assay: Test B preemergence/postemergence greenhouse plant response rating 0 to 10; assay type: in vivo, Beta vulgaris; conditions: 0 to 10 scale
Procedure, shortened: as §2

[12] = test system: downy brome; assay: Test C preemergence/postemergence greenhouse plant response rating 0 to 100; assay type: in vivo, Bromus tectorum; conditions: POSTEMERGENCE; for Plant response rating Downy Brome: 0 to 100 scale
Procedure, shortened: as §1

[13] = test system: cotton; assay: Test B preemergence/postemergence greenhouse plant response rating 0 to 10; assay type: in vivo, Gossypium hirsutum; conditions: 0 to 10 scale
Procedure, shortened: as §2

[14] = test system: sorghum; assay: Test C preemergence/postemergence greenhouse plant response rating 0 to 100; assay type: in vivo, Sorghum bicolor; conditions: POSTEMERGENCE; for Plant response rating, Sorghum: 0 to 100 scale
Procedure, shortened: as §1

[15] = test system: lambsquarters; assay: Test B preemergence/postemergence greenhouse plant response rating 0 to 10; assay type: in vivo, Chenopodium album; conditions: 0 to 10 scale
Procedure, shortened: as §2

[16] = test system: blackgrass; assay: as above; assay type: in vivo, Alopecurus myosuroides; conditions: 0 to 10 scale
Procedure, shortened: as §2

[17] = test system: crabgrass; assay: Test C preemergence/postemergence greenhouse plant response rating 0 to 100; assay type: in vivo, Digitaria sanguinalis; conditions: POSTEMERGENCE; for Plant response rating, Crabgrass: 0 to 100 scale
Procedure, shortened: as §1

[18] = test system: wild oat; assay: as above; assay type: in vivo, Avena fatua; conditions: POSTEMERGENCE; for Plant response rating, Wild oat: 0 to 100 scale
Procedure, shortened: as §1

CC(C)OC(=O)COc1cc(-c2nn3c(c2Cl)CCCC3)c(F)cc1Cl [Compound 39]
Plant response rating, Wheat ([1]; 62 g/ha): 10
Plant response rating, Wheat ([1]; 125 g/ha): 20
Plant response rating (0 to 100), Wheat ([1]; Rate 16 g/ha): 10
Plant response rating (0 to 100), Wheat ([1]; Rate 31 g/ha): 10
Plant response rating, Sorghum ([2]; POSTEMERGENCE, Rate 50 g/ha): 5
Plant response rating, Sorghum ([2]; PREEMERGENCE, Rate 50 g/ha): 0
Plant response rating, Sorghum ([2]; Rate 200 g/ha, POSTEMERGENCE): 5
Plant response rating, Sorghum ([2]; Rate 200 g/ha, PREEMERGENCE): 0
Plant response rating, Wheat ([3]; POSTEMERGENCE, Rate 50 g/ha): 4
Plant response rating, Wheat ([3]; PREEMERGENCE, Rate 50 g/ha): 0
Plant response rating, Wheat ([3]; Rate 200 g/ha, POSTEMERGENCE): 5
Plant response rating, Wheat ([3]; Rate 200 g/ha, PREEMERGENCE): 0
Plant response rating (0 to 100), Barnyardgrass ([4]; Rate 16 g/ha): 50
Plant response rating (0 to 100), Barnyardgrass ([4]; Rate 31 g/ha): 80
Plant response rating, Barnyardgrass ([4]; 62 g/ha): 90
Plant response rating, Barnyardgrass ([4]; 125 g/ha): 95
Plant response rating, Bedstraw ([5]; POSTEMERGENCE, Rate 200 g/ha): 10
Plant response rating, Bedstraw ([5]; PREEMERGENCE, Rate 50 g/ha): 4
Plant response rating, Bedstraw ([5]; Rate 200 g/ha, PREEMERGENCE): 9
Plant response rating, Barley ([6]; POSTEMERGENCE, Rate 50 g/ha): 4
Plant response rating, Barley ([6]; POSTEMERGENCE, Rate 200 g/ha): 6
Plant response rating, Barley ([6]; PREEMERGENCE, Rate 50 g/ha): 0
Plant response rating, Barley ([6]; Rate 200 g/ha, PREEMERGENCE): 0
Plant response rating Ryegrass ([7]; 125 g/ha, 0 to 100 scale): 20
Plant response rating (0 to 100), Ryegrass ([7]; Rate 16 g/ha): 10
Plant response rating (0 to 100), Ryegrass ([7]; Rate 31 g/ha): 10
Plant response rating, Wild oat ([8]; POSTEMERGENCE, Rate 50 g/ha): 3
Plant response rating, Wild oat ([8]; PREEMERGENCE, Rate 50 g/ha): 0
Plant response rating, Wild oat ([8]; Rate 200 g/ha, POSTEMERGENCE): 3
Plant response rating, Rape ([9]; 62 g/ha): 60
Plant response rating, Rape ([9]; 125 g/ha): 70
Plant response rating (0 to 100), Rape ([9]; Rate 16 g/ha): 20
Plant response rating (0 to 100), Rape ([9]; Rate 31 g/ha): 50
Plant response rating, Wild buckwheat ([10]; 62 g/ha): 90
Plant response rating, Wild buckwheat ([10]; 125 g/ha): 100
Plant response rating (0 to 100), Wild buckwheat ([10]; Rate 31 g/ha): 70
Plant response rating, Sugar beet ([11]; POSTEMERGENCE, Rate 50 g/ha): 10
Plant response rating, Sugar beet ([11]; PREEMERGENCE, Rate 50 g/ha): 8
Plant response rating, Sugar beet ([11]; Rate 200 g/ha, POSTEMERGENCE): 10
Plant response rating, Sugar beet ([11]; Rate 200 g/ha, PREEMERGENCE): 10
Plant response rating Downy Brome ([12]; 62 g/ha): 30
Plant response rating Downy Brome ([12]; 125 g/ha): 40
Plant response rating (0 to 100), Downy Brome ([12]; Rate 16 g/ha): 10
Plant response rating (0 to 100), Downy Brome ([12]; Rate 31 g/ha): 20
Plant response rating, Cotton ([13]; POSTEMERGENCE, Rate 50 g/ha): 10
Plant response rating, Cotton ([13]; POSTEMERGENCE, Rate 200 g/ha): 10
Plant response rating, Cotton ([13]; PREEMERGENCE, Rate 50 g/ha): 0
Plant response rating, Cotton ([13]; Rate 200 g/ha, PREEMERGENCE): 0
Plant response rating, Sorghum ([14]; 62 g/ha): 50
Plant response rating, Sorghum ([14]; 125 g/ha): 60
Plant response rating (0 to 100), Sorghum ([14]; Rate 16 g/ha): 20
Plant response rating (0 to 100), Sorghum ([14]; Rate 31 g/ha): 30
Plant response rating, Lambsquarter ([15]; POSTEMERGENCE, Rate 50 g/ha): 9
Plant response rating, Lambsquarter ([15]; PREEMERGENCE, Rate 50 g/ha): 10
Plant response rating, Lambsquarter ([15]; Rate 200 g/ha, POSTEMERGENCE): 10
Plant response rating, Lambsquarter ([15]; Rate 200 g/ha, PREEMERGENCE): 10
Plant response rating, Blackgrass ([16]; POSTEMERGENCE, Rate 50 g/ha): 4
Plant response rating, Blackgrass ([16]; POSTEMERGENCE, Rate 200 g/ha): 4
Plant response rating, Blackgrass ([16]; PREEMERGENCE, Rate 50 g/ha): 0
Plant response rating, Blackgrass ([16]; Rate 200 g/ha, PREEMERGENCE): 2
Plant response rating, Crabgrass ([17]; 62 g/ha): 20
Plant response rating, Crabgrass ([17]; 125 g/ha): 30
Plant response rating (0 to 100), Crabgrass ([17]; Rate 16 g/ha): 10
Plant response rating (0 to 100), Crabgrass ([17]; Rate 31 g/ha): 10
Plant response rating, Wild oat ([18]; 62 g/ha): 20
Plant response rating, Wild oat ([18]; 125 g/ha): 30
Plant response rating (0 to 100), Wild oat ([18]; Rate 16 g/ha): 10
Plant response rating (0 to 100), Wild oat ([18]; Rate 31 g/ha): 20
